Literature values, collected in patent US20030143648A1, “Enzyme activity profiles” (priority 2001, published 2003).

Tested on: FAAH
Conditions: pH 8.0

## CCCCCCCC/C=C\CCCCCCCC(N)=O [oleamide]
  kcat of FAAH for oleamide: approximately 2 s −^1
